We go through 1 compound from patent US6521634B2, “Uses of dl-THP” (The Hong Kong University of Science & Technology, priority 2001, dated 2003).

One series addresses α-2 adrenoceptors. Particulars: rat cerebral cortex; previously performed studies; cited from earlier work.
For series [1], the system named is ICR mice. Kind of series: Horizontal-wire test. Format: in vivo. The note with it: up to 30 mg/kg orally. The protocol:
ICR mice of either sex, weighing 14-17 g were used. Animals were housed in groups of four or five and were given food and water ad libitum and maintained on a 11 hour light: 13 hour dark cycle. All of the experimental groups had 12 animals per group. dl-THP was dissolved in double distilled water and administered orally 1 hour before testing at concentrations as detailed below, with a total injection volume of 10 ml/kg. For the control group, double-distilled water was used as the vehicle. The mice are lifted by the tail and allowed to grasp a horizontally strung wire (1 mm diameter, 15 cm long and placed 20 cm above the table) with their forepaws and released (Bonetti E P et al., Psychophannacology (Berl). 1982;78(1):8-18; PMID: 6292984).

For the next series, the system named is rats. Particulars: rat, in vivo, po; cited from earlier work.
Series [2] relates to ICR mice. Kind of series: Hole-board test. Format: in vivo. The note with it: 5 minute test. Here is the method:
ICR mice of either sex, weighing 14-17 g were used. Animals were housed in groups of four or five and were given food and water ad libitum and maintained on a 11 hour light: 13 hour dark cycle. All of the experimental groups had 12 animals per group.
dl-THP was dissolved in double distilled water and administered orally 1 hour before testing at concentrations as detailed below, with a total injection volume of 10 ml/kg. For the control group, double-distilled water was used as the vehicle.
All procedures were carried out in a quiet, air-conditioned laboratory between 08:00 and 13:00 at ambient temperature of 20-22° C. At the end of each session any boluses were removed and the box was thoroughly wiped with 70% ethanol.
The hole-board apparatus is a walled wood arena of 60×60×30 cm, with four equidistant 3 cm diameter holes spaced on the floor. The mice are placed on the center of the arena and the number of head-dips on the hole, the time spent head-dipping, the number of rearings and the time spent rearing are counted during a 5 minute test period (File SE et al., “The effects of triazolobenzodiazepines in two animal tests of anxiety and in the holeboard.”, Br J Pharmacol. November 1985;86(3):729-35; PMID: 2866006). After each trial, the floor of the apparatus was wiped and dried thoroughly with tissue to remove traces of the previous path.
The results from the locomotor activity test and the elevated plus-maze test are expressed as mean±standard error of mean (SEM). All data were submitted to analysis of variance (ANOVA). Post hoc comparisons between individual treatments and controls of the locomotor activity test, the hole-board test and the elevated plus-maze test were made using Dunnett's t-test. The level of significance was considered to be p<0.05.

The target in another series is α-1 adrenoceptors. Particulars: rat cerebral cortex; previously performed studies; cited from earlier work.
For another series, the system named is mice. Particulars: cited from earlier work.
Series [3] concerns ICR mice. Kind of series: Elevated plus-maze test. Format: in vivo. Here is the method:
ICR mice of either sex, weighing 14-17 g were used. Animals were housed in groups of four or five and were given food and water ad libitum and maintained on a 11 hour light: 13 hour dark cycle. All of the experimental groups had 12 animals per group. dl-THP was dissolved in double distilled water and administered orally 1 hour before testing at concentrations as detailed below, with a total injection volume of 10 ml/kg. For the control group, double-distilled water was used as the vehicle. All procedures were carried out in a quiet, air-conditioned laboratory between 08:00 and 13:00 at ambient temperature of 20-22° C. At the end of each session any boluses were removed and the box was thoroughly wiped with 70% ethanol. The elevated plus-maze is made of wood as a horizontal cross consisting of two open arms (25×5 cm) and two opposite arms (25×5 cm) enclosed by 20 cm high walls. The arms extend from a central platform having dimensions of 5×5 cm. The plus-maze is elevated to a height of 40 cm from the floor. The maze is put inside a box with dimensions of 30×30×50 cm. After the hole-board test, the mice are immediately placed on the central platform of the maze facing a closed arm. The number of arm entries and the time spent into the open and closed arm are counted for 5 minutes (Pellow S et al., “Anxiolytic and anxiogenic drug effects on exploratory activity in an elevated plus-maze: a novel test of anxiety in the rat.”, Pharmacol Biochem Behav. March 1986;24(3):525-9; PMID: 2871560). Arm entry was defined as all four feet in the arm. The total number of arm entries provided a measure of general activity. […] The results from the locomotor activity test and the elevated plus-maze test are expressed as mean±standard error of mean (SEM). All data were submitted to analysis of variance (ANOVA). Post hoc comparisons between individual treatments and controls of the locomotor activity test, the hole-board test and the elevated plus-maze test were made using Dunnett's t-test. The level of significance was considered to be p<0.05.

The target in series [4] is BDZ binding site of the GABAA receptor. Kind of series: competitive binding assay with [3H]-flunitrazepam. Particulars: [3H]-flunitrazepam competition.
For series [5], the system named is ICR mice. Nature of the series: Locomotor activity test. Format: in vivo. The note with it: 1 hour before 5 minute test. The protocol: ICR mice of either sex, weighing 14-17 g were used. Animals were housed in groups of four or five and were given food and water ad libitum and maintained on a 11 hour light: 13 hour dark cycle. All of the experimental groups had 12 animals per group. dl-THP was dissolved in double distilled water and administered orally 1 hour before testing at concentrations as detailed below, with a total injection volume of 10 ml/kg. For the control group, double-distilled water was used as the vehicle. All procedures were carried out in a quiet, air-conditioned laboratory between 08:00 and 13:00 at ambient temperature of 20-22° C. At the end of each session any boluses were removed and the box was thoroughly wiped with 70% ethanol. The ZIL-2 apparatus (Beijing Institute of Materia Medica) having dimensions of 60×60×12 cm was used to perform this test. It consists of four circular plastic boxes of 25 cm diameter, each having 6 equally distributed infrared photocells. The locomotor activity was counted automatically during a 5 minute test period. A decrease in the number of transitions reflects a decrease in locomotor activity. The results from the locomotor activity test and the elevated plus-maze test are expressed as mean±standard error of mean (SEM). All data were submitted to analysis of variance (ANOVA). Post hoc comparisons between individual treatments and controls of the locomotor activity test, the hole-board test and the elevated plus-maze test were made using Dunnett's t-test. The level of significance was considered to be p<0.05.

Where [6] appears, read: 1, 10 and 30 mg/kg orally, dose-dependent, 5 minute test.

Each structure is given as a SMILES string. Read-outs that look alike come from different tables or passages of the source.

For the compound `COc1cc2c(cc1OC)C1Cc3ccc(OC)c(OC)c3CN1CC2` (racemic) [dl-THP, 5,8,18,13a-tetrahydro-2,3,9,10-tetramethoxy-6H-dibenzo [a,q] quinolizine], the Ki at α-2 adrenoceptors is 4.97 µM; on α-1 adrenoceptors, 4.7 µM; in series [4] (read-out: Ki, inhibition of binding of [3H]-flunitrazepam to the BDZ binding site of the GABAA receptor) it was 518 µM. For the same compound, the “muscle-relaxant effect, grasping of horizontal wire” value in the series with ICR mice [1] was “without effect”. In addition, the LD50 was 930 mg/kg in the series with rats; 670 mg/kg in the series with mice (mice, sub-cutaneous administration); 1160 mg/kg in the series on mice (mouse, in vivo, po). The “number of head-dips (Dunnett's test)” value with ICR mice [2] (10 mg/kg orally) is recorded as “significantly reduced”. Also, in the series on ICR mice [2] (30 mg/kg orally), the number of head-dips entry is recorded as “significantly reduced”. Moreover, in the series with ICR mice [2] (30 mg/kg orally), the time spent head-dipping result is given as “significantly reduced”. Also, in the series with ICR mice [3] (1 mg/kg orally), the “open arm parameters versus controls (Dunnett's test)” value was “significantly differed from controls”. In addition, in the series with ICR mice [3] (1, 10 and 30 mg/kg orally, 5 minute test), the “total number of arm entries” value was “did not significantly alter”. Moreover, the “percentage of open arm entries” value in the series on ICR mice [3] (setting [6]) is recorded as “significantly elevated”. The “percentage of time spent on the open arms” value with ICR mice [3] (setting [6]) is given as “significantly elevated”. The IC50 in series [4] (read-out: IC50, inhibition of binding of [3H]-flunitrazepam to the BDZ binding site of the GABAA receptor) came out at 836 µM. Also, the results for the “reduction of locomotor activity” value in the series on ICR mice [5] (1 mg/kg orally), in the series on ICR mice [5] (10 mg/kg orally) and in the series with ICR mice [5] (30 mg/kg orally) were 33%, 33% and 36%, respectively.
